# Reference: patent US8754233B2, “Pyrazolylbenzothiazole derivatives and their use as therapeutic agents” (Dermira (Canada), Inc., priority 2002, dated 2014)
# Legend:
# Assay type in all cases: cell-based, mouse
# [1] = test system: IFNg on ConA 1° splenocytes; assay: Inhibition of IFNγ release from ConA-stimulated splenocytes; settings: ConA-stimulated Balb/c splenocytes, 18-24 hours, ELISA
# Method: T-lymphocytes obtained from mice spleens are a suitable sample for studying the activation properties of this immunologically important cell type. T-lymphocytes are the main regulators for inflammation. Concanavalin A (ConA) is an effective activator of T-lymphocytes, which allows T-lymphocytes to proliferate and produce inflammatory cytokines, such as Interferon (IFNγ) and regulatory cytokines, such as Interleukin 10 (IL-10).
# The spleens were transferred onto mesh screen containing 10 ml of ice cold RPMI-5 (1× sodium pyruvate and 5% FBS) and gently ground with a pestle. The cell suspensions were centrifuged at 1500 rpm for 6 minutes at 4° C. […] The supernatant was discarded and the pellet washed two additional times. The cells were resuspended in RPMI-5 and the cell suspensions combined. The cells were counted and their concentration was adjusted to 2.8×10^6 cells/ml using RPMI-5.
# The working concentration of ConA was […]. A 20× working concentration of Concanavalin A was […] was prepared using RPMI-5. The test compounds, dimethylsulfoxide (DMSO) negative vehicle control and staurosporine positive control were diluted twenty times using RPMI-5. Ten μL each of DMSO and staurosporine were combined with 180 μl of medium containing splenocytes in the wells, and 10 μl of 50 μg/ml ConA was immediately added. Medium without ConA was added to the control wells. […] The plates were incubated at 37° C. in 5% CO2 in humidified conditions overnight (18-24 hours) for INFγ.
# At the completion of the stimulation described above, the plates were spun at 2000 rpm for 10 minutes. The supernatants (100 μl) from each well were transferred to fresh plates for INFγ analysis by ELISA.
# INFγ levels in the supernatants from stimulated lymphocytes were determined with PharMingen's OptEIA™ INFγ Kit (PharMingen) according to manufacturer's directions. The data, shown in Table 2 infra, is represented as a percentage of INFγ inhibition by the following formula: INFγ inhibition=100−(AVG treatment/AVG DMSO control)*100.
# macrophages = assay: Survival of macrophages; settings: stimulated primary macrophages
# TNFa on macrophages = assay: Inhibition of TNFα release from stimulated macrophages; settings: LPS and IFN-γ stimulated primary macrophages, ELISA
# Method: Peritoneal exudate macrophages were isolated by peritoneal lavage with ice-cold sterile physiological saline 24 hours after intraperitoneal injection of BALB/c mice with 0.5 mL of sterile Zymosan A (1 mg/0.5 mL 0.9% saline). […] Murine primary macrophage will get activated following incubation with LPS in the presence of sub-optimal doses of IFN-γ. […] TNF-αlevels in the supernatants from stimulated macrophages were determined with PharMingen's OptEIA TNF-α kit (PharMingen). The experiment was performed at room temperature, about 21° C., unless otherwise stated. The microwells (F8 MaxiSorp™ Loose/Nunc-Immuno Module; Gibco/BRL) were coated with 100 μl/well of capture antibody (at the recommended concentration) and incubated overnight at 4° C. […] Next, the solution was removed and the plates were washed 5× with wash buffer. The TNF-αanalysis was initiated by adding duplicate samples (100 μl/well) or standards (100 μl/well) in diluent buffer which were incubated for 2 h. The solution was removed and the plates washed 5× with wash buffer. Enzyme reagent (100 μl) containing biotinylated mouse TNF-αmonoclonal antibody and avidin-horseradish peroxidase conjugate (at concentrations recommended by the manufacturer) was added to each well. The plate was incubated for 1 hour, the solution removed, and the plates washed 7× with wash buffer. […] Colour development was terminated by adding 50 μl of 2N H2SO4. […] Peritoneal exudate macrophages were isolated by peritoneal lavage with ice-cold sterile physiological saline 24 hours after intraperitoneal injection of BALB/c mice with 0.3 ml of sterile zymosan A (1 mg/0.5 mL 0.9% saline). […] All treatments were replicated six times. Cells were incubated for an additional 24 hours, and cell free culture supernatants from each well were collected for NO and cytokine determination. The remaining cells were stained with crystal violet to determine effect of the compound on cell survival.
# IL-12 on macrophages = assay: Inhibition of IL-12 release from stimulated macrophages; settings: LPS and IFN-γ stimulated primary macrophages, ELISA
# Method: Peritoneal exudate macrophages were isolated by peritoneal lavage with ice-cold sterile physiological saline 24 hours after intraperitoneal injection of BALB/c mice with 0.5 mL of sterile Zymosan A (1 mg/0.5 mL 0.9% saline). […] Murine primary macrophage are activated following incubation with LPS in the presence of sub-optimal doses of IFN-γ. Upon activation, macrophages participate actively in the onset of inflammation by releasing bioactive molecules that amplify the initial inflammatory response. […] Briefly, IL-12 levels in the supernatants from stimulated macrophages were determined with PharMingen's OptEIA™ ELISA set developed using an anti-mouse IL-12 antibody pair and mouse rIL-12 standard (PharMingen). Maxisorp™ F16 multiwell strips (Nunc, Roskilde, Denmark) were coated with anti-mouse IL-12 capture Ab (at recommended concentration) in 0.1 M NaHCO3, pH 9.5, 100 μL/well, overnight at 4° C. […] Plates were washed 3× with PBST and duplicate samples (100 μL/well) or standards (100 μL/well) in diluent buffer were incubated for 2 h. Plates were washed five times with PBST and incubated with biotinylated anti-mouse IL-12 and avidin-horseradish peroxidase (HRP) conjugate (at concentrations recommended by the manufacturer) for 1 h. […] Peritoneal exudate macrophages were isolated by peritoneal lavage with ice-cold sterile physiological saline 24 hours after intraperitoneal injection of BALB/c mice with 0.3 ml of sterile zymosan A (1 mg/0.5 mL 0.9% saline). […] All treatments were replicated six times. Cells were incubated for an additional 24 hours, and cell free culture supernatants from each well were collected for NO and cytokine determination. The remaining cells were stained with crystal violet to determine effect of the compound on cell survival.
# ConA 1° splenocytes = assay: Survival of ConA 1° splenocytes (cytotoxicity by MTS staining); settings: ConA-stimulated splenocytes
IC50 [1],IC50 (TNFa on macrophages),IC50 (IL-12 on macrophages),Structure (SMILES),IC50 (macrophages),IC50 (ConA 1° splenocytes)
6.1 µM,14.7 µM,23.4 µM,COc1cc2sc(-c3c(N4CCNCC4)n[nH]c3N)nc2cc1F [4-(5-Fluoro-6-methoxybenzothiazole)-5-piperizin-1-yl-2H-pyrazol-3-ylamine],> 25 µM,17.5 µM
11 µM,17.1 µM,> 25 µM,"COc1cc2sc(-c3c(NCCN(C)C)n[nH]c3N)nc2cc1F [N^3-(2-Dimethylaminoethyl)-4-(5-fluoro-6-methoxybenzothiazole)-1H-pyrazole-3,5-diamine]",> 25 µM,> 25 µM
